Data reported in the supplement of paper PMC10307832.

Legend:
Test in all cases: relative viability (nuclei count vs DMSO), 5 days (fraction); higher = more cells survive
[1] = compound: C1COCCN1C2=NC(=NC3=C2OC4=C3C=CC=N4)C5=CC(=CC=C5)NC(=O)C6=CN=C(C=C6)N + O=C(c1cc(Cc2n[nH]c(=O)c3ccccc23)ccc1F)N1CCN(C(=O)C2CC2)CC1 [Olaparib] (partner 8 µM)
Method in brief: (§1)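 Lung cancer cell lines were pin-tool dosed in 1536-well plates on the day after seeding, with either a lone drug or a fixed anchor-drug dose plus five library-drug doses (not always all listed) in √10 steps. Nuclei were counted on 4× images after 5 days. Relative viability is the ratio of treated-well to vehicle-well nuclei counts, with each value a median of duplicate plates.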

SGI-1776 + Phenformin = compound: CN1CCC(CNc2ccc3ncc(-c4cccc(OC(F)(F)F)c4)n3n2)CC1 [SGI-1776] + N=C(N)NC(=N)NCCc1ccccc1 [Phenformin] (partner 250 µM)
Method in brief: as §1

SGI-1776 + Olaparib = compound: CN1CCC(CNc2ccc3ncc(-c4cccc(OC(F)(F)F)c4)n3n2)CC1 [SGI-1776] + O=C(c1cc(Cc2n[nH]c(=O)c3ccccc23)ccc1F)N1CCN(C(=O)C2CC2)CC1 [Olaparib] (partner 8 µM)
Method in brief: as §1

SGI-1776 + Pemetrexed = compound: CN1CCC(CNc2ccc3ncc(-c4cccc(OC(F)(F)F)c4)n3n2)CC1 [SGI-1776] + Nc1nc2[nH]cc(CCc3ccc(C(=O)N[C@@H](CCC(=O)O)C(=O)O)cc3)c2c(=O)[nH]1 [Pemetrexed] (partner 0.2 µM)
Method in brief: as §1

Cell Line	relative viability ([1]; first compound 0.02 µM)	relative viability ([1]; first compound 0.06325 µM)	relative viability ([1]; first compound 0.2 µM)	relative viability ([1]; first compound 0.6325 µM)	relative viability ([1]; first compound 2 µM)	relative viability (SGI-1776 + Phenformin; first compound 0.08 µM)	relative viability (SGI-1776 + Phenformin; first compound 0.8 µM)	relative viability (SGI-1776 + Phenformin; first compound 2.53 µM)	relative viability (SGI-1776 + Phenformin; first compound 8 µM)	relative viability (SGI-1776 + Olaparib; first compound 0.08 µM)	relative viability (SGI-1776 + Olaparib; first compound 0.8 µM)	relative viability (SGI-1776 + Olaparib; first compound 2.53 µM)	relative viability (SGI-1776 + Olaparib; first compound 8 µM)	relative viability (SGI-1776 + Pemetrexed; first compound 0.08 µM)	relative viability (SGI-1776 + Pemetrexed; first compound 0.8 µM)	relative viability (SGI-1776 + Pemetrexed; first compound 2.53 µM)	relative viability (SGI-1776 + Pemetrexed; first compound 8 µM)
NCI-H727	0.723	0.802	0.746	0.605	0.606	0.525	0.577	0.552	0.498	0.69	0.639	0.659	0.679				
NCI-H522	0.584	0.649	0.63	0.554	0.525	0.708	0.676	0.698	0.563	0.612	0.52	0.623	0.551	0.953	0.867	0.98	0.889
EMC-BAC-2	0.483	0.484	0.472	0.476	0.445	0.517	0.475	0.469	0.419	0.504	0.506	0.509	0.452	0.438	0.452	0.458	0.425
NCI-H1437	0.645	0.682	0.613	0.681	0.239	0.322	0.259	0.296	0.297	0.65	0.618	0.6	0.552	0.3	0.328	0.28	0.265
NCI-H2347	0.532	0.625	0.571	0.517	0.532	0.652	0.44	0.333	0.396	0.606	0.674	0.632	0.614	0.471	0.419	0.469	0.338
NCI-H1666	0.757	0.74	0.729	0.804	0.755	0.615	0.544	0.527	0.502	0.794	0.782	0.838	0.729	0.895	0.917	0.893	0.789
NCI-H1648	0.83	0.8	0.666	0.566	1.18					0.648	0.763	0.761	1.21	0.617	0.868	0.688	0.683
NCI-H1703	0.335	0.447	0.372	0.308	0.222					0.338	0.394	0.387	0.12				
EBC-1	0.7	0.77	0.582	0.668	0.356					0.74	0.732	0.687	0.573				
NCI-H1563						0.694	0.595	0.63	0.548					0.929	0.847	0.765	0.726
ABC-1	0.767	0.945	0.726	1.04	0.685	0.23	0.24	0.219	0.236	0.78	0.874	0.5	0.842				
